Data: patent US20090280130A1 (priority 2006, published 2009)
Where “and” joins values, the source holds several entries; their conditions need not be identical. Equal entries are not always repeated. Entries after “also recorded” stand apart in the source; their conditions may differ.

Columns and labels:
zebrafish embryos [1] = conditions: in vivo
zebrafish embryos [2] = conditions: in vivo; remark: listed apart in the source
zebrafish embryos [3] = conditions: in vivo; remark: listed apart in the source
[4] = system: mouse skin microvasculature; parameters: species or system C3H/HeJ mice; conditions: in vivo
VEGFR2 [5] = target: T1, VEGFR2 (Homo sapiens, UniProt P35968); conditions: cited from earlier work
VEGFR1 = VEGFR1 (Homo sapiens, UniProt P17948); conditions: cited from earlier work
VEGFR2 [6] = target: T1, VEGFR2; conditions: cited from earlier work; remark: listed apart in the source
VEGFR2 [7] = target: VEGFR2 (Mus musculus, UniProt P35918); conditions: cited from earlier work
zebrafish embryos [8] = type: in vivo; conditions: n>30
zebrafish embryos [9] = type: in vivo; conditions: 5 μM for 6 hours

T1 sequence (P35968 20-1356): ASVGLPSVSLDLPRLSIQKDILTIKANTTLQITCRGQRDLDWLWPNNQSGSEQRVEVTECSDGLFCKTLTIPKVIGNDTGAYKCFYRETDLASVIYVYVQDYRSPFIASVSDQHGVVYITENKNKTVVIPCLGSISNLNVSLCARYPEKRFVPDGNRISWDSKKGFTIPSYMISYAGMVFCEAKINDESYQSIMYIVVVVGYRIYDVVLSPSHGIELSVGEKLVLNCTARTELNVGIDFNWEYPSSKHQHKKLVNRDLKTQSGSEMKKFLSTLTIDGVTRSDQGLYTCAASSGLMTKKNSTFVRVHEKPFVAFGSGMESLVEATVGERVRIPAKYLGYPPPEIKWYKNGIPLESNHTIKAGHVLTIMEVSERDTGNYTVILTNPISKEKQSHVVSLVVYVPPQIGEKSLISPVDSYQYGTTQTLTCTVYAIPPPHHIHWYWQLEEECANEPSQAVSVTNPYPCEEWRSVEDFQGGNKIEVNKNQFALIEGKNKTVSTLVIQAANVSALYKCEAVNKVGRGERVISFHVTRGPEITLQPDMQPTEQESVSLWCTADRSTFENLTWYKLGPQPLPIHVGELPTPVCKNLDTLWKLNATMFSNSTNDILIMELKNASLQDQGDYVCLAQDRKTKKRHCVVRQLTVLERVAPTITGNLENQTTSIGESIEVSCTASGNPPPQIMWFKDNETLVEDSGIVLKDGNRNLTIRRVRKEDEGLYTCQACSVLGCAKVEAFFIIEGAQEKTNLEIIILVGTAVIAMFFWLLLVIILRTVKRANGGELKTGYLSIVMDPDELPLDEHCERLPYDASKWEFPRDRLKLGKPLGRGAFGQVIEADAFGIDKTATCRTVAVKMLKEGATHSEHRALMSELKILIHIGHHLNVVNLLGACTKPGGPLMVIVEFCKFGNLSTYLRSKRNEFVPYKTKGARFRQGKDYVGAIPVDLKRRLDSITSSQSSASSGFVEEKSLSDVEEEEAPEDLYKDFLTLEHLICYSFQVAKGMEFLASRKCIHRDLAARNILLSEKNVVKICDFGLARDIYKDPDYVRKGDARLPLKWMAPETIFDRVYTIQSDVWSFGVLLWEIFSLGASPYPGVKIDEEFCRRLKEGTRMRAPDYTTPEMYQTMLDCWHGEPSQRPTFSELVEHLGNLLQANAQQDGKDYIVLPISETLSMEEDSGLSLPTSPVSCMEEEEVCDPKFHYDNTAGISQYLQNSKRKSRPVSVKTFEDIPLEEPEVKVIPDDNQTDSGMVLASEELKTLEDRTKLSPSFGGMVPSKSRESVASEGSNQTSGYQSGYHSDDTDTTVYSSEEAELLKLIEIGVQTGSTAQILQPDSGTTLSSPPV
VEGFR1, sequence (P17948 27-1338): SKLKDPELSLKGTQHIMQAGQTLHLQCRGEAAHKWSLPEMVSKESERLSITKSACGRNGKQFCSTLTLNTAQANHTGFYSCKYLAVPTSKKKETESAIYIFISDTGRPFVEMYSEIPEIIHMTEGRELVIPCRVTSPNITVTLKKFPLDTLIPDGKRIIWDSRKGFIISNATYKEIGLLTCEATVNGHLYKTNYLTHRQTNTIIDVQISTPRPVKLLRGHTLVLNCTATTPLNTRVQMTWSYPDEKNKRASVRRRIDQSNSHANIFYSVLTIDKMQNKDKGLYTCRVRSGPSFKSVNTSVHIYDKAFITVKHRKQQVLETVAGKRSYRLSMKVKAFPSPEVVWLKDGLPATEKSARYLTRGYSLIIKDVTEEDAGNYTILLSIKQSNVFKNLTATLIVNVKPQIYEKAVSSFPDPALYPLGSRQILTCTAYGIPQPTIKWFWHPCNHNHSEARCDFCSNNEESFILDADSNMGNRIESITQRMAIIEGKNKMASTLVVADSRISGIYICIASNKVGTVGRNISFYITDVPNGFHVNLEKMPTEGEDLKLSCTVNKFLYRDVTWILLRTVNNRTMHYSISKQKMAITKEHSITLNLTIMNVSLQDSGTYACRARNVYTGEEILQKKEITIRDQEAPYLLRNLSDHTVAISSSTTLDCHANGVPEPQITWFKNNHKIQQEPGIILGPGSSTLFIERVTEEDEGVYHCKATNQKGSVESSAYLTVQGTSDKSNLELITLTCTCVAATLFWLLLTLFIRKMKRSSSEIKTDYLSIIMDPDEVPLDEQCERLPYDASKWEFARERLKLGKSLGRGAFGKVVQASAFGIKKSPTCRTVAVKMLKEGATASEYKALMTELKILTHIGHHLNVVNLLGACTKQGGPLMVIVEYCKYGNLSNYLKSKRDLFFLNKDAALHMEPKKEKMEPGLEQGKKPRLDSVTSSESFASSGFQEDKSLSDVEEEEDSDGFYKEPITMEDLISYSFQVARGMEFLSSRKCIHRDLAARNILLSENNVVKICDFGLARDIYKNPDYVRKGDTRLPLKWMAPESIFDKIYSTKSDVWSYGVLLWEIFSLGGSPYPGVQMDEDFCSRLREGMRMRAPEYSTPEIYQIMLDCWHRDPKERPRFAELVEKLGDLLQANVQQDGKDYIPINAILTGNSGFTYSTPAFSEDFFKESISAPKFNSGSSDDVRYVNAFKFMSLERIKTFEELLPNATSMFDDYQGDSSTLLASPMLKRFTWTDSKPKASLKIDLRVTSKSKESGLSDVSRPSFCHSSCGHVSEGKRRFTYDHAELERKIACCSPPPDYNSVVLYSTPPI
VEGFR2 (Mus musculus, UniProt P35918), sequence (P35918 20-1345): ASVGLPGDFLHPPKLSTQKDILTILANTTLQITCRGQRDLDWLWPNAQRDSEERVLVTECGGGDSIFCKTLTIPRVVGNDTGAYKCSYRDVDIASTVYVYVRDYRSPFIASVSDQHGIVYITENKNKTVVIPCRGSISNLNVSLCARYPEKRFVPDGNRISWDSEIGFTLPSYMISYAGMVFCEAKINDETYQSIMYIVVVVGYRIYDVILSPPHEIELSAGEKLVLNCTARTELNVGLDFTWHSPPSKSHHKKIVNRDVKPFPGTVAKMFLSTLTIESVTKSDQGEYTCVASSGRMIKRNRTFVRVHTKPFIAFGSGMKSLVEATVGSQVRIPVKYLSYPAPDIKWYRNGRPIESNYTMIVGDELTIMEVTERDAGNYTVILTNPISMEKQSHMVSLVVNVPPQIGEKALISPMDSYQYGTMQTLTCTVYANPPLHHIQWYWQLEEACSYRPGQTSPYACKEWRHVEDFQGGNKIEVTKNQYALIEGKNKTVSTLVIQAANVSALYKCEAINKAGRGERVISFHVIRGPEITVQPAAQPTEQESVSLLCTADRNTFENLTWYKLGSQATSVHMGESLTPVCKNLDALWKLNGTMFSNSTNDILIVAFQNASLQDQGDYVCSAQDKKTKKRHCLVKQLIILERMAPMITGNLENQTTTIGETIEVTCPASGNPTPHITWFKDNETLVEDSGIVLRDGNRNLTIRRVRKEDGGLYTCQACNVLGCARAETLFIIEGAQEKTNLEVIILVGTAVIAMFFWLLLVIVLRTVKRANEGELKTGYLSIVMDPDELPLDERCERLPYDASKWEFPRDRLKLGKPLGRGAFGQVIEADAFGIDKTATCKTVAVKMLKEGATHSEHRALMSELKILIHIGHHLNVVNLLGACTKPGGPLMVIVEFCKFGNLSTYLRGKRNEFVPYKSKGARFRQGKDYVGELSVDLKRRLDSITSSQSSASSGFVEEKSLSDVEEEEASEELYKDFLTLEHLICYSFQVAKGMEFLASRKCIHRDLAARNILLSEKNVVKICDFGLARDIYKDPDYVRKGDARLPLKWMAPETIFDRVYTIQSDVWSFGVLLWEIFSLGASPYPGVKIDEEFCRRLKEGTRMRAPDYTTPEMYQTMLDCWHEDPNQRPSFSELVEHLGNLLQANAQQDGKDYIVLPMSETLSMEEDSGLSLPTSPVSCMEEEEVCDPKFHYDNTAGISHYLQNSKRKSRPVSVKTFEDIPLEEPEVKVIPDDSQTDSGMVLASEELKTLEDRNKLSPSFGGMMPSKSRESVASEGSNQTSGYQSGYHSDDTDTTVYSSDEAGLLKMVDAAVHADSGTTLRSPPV

Molecule	Mild Toxin Phenotype (zebrafish embryos [1])	Severe Toxin Phenotype (zebrafish embryos [1])	Wildtype Appearance (zebrafish embryos [1])	also measured
ZM449829	5	15	1	–
ZM323881	10	8	4	Mild Toxin Phen (zebrafish embryos [2]): 12 and 8 and 9 and 13; Proportion of embryos displaying LeTx phenotypes (in words) (zebrafish embryos [2]): reduction in the proportion of embryos displaying LeTx phenotypes is seen in 3 concentrations of the inhibitor; Severe forms of the LeTx phenotype (in words) (zebrafish embryos [2]): dramatic reduction in the severe forms of the LeTx phenotype that occurred in all concentrations used; Attenuation of toxin effects (in words) (zebrafish embryos [3]): able to attenuate the toxin effects; Protection against LeTx effects / phenotypes (in words) (zebrafish embryos [1]): provided the best protection against the development of LeTx phenotypes; also recorded: demonstrated protection against LeTx effects; LeTx induced vascular leakage, Evans Blue Dye (in words) [4]: attenuated LeTx induced vascular leakage significantly; IC50 (VEGFR2 [5]): < 0.002 µM; IC50 (VEGFR1): > 50 µM; VEGFR2 activation (in words) (VEGFR2 [6]): inhibit VEGFR2 activation
Cn1cc(C=C2C(=O)Nc3ccc(S(N)(=O)=O)cc32)c2ccccc21 [Syk Inhibitor, 3-(1-Methyl-1H-indol-3-yl-methylene)-2-oxo-2,3-dihydro-1H-indol-5-sulfonamide]	7	14	1	–
CCN(CC)CCNC(=O)c1c(C)[nH]c(/C=C2\C(=O)Nc3ccc(Cl)cc32)c1C [SU11652]	11	10	1	% With Toxin Phen (Mild and Severe) (zebrafish embryos [3]): 80% and 100%; Mild Phen (zebrafish embryos [3]): 7 and 9 and 8; Protection against LeTx effects (in words) (zebrafish embryos [3]): able to protect against LeTx effects; Severe Toxin Phen (zebrafish embryos [3]): 9 and 11 and 12; Protection against LeTx effects / phenotypes (in words) (zebrafish embryos [1]): demonstrated protection against LeTx effects; LeTx induced vascular leakage, Evans Blue Dye (in words) [4]: attenuated LeTx induced vascular leakage significantly; Blocking of VEGFR2 activity in vivo (in words) (VEGFR2 [7]): used successfully to block VEGFR2 activity
C[C@@H](N)[C@H]1CC[C@H](C(=O)Nc2ccncc2)CC1 [Y-27632]	6	13	1	–
O=C(NOCC1CC1)c1ccc(F)c(F)c1Nc1ccc(I)cc1Cl [CI-1040]	–	–	–	embryos in which LeTx effects were phenocopied (zebrafish embryos [8]): 100%
C[C@@H]1C[C@@H]([C@H](O)CC2CC(=O)NC(=O)C2)C(=O)[C@@H](C)C1 [cycloheximide]	–	–	–	Phenocopy of endothelial cell fragmentation in the intersegmental vessels (in words) (zebrafish embryos [9]): phenocopied
AG-1296	3	15	2	–
